Results published in the supplement of paper PMC11208160.

Assay: recombinant barcode read abundance after kanamycin selection (control-corrected) (log10(CPM+1)); higher = more efficient recombination; sequences stand for … in AGTGCAGAGAAAATCGGCCAGTTTTCTCTGCCTGCAGTCCGCATGCCGT…ATTTATGCAGCGGACTGCCTTTCTCCCAAAGTGATAAACCGGACAGTATCATGGACCGGTTTTCCCGGTAATCCGTATTTGCAAGGTTGGTTTCACT; site = the 11-nt target
In short: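 Values are log10(CPM+1) from a pooled E. coli screen of targets paired with IS621 bridge RNA target-binding loops. Recombination efficiency here means counts per million of recombinant-junction barcodes, averaged and control-corrected. Plates were chloramphenicol/ampicillin LB agar for the control and chloramphenicol/ampicillin/kanamycin with 0.1 mM IPTG, two replicates each.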

Sequence	recombinant barcode read abundance (log10)
CGGTCCCCGTGGGTTCTAACCTGTTGCCACG [CGGTCCCCTTG_LTGcore_CG_RTGcore_CG] (site CGGTCCCCTTG) (LTG core: CG, RTG core: CG)	0.342
CGGTCCCCTTGGGTTCTAACCTGTTGCCAAA [CGGTCCCCTTG_LTGcore_CT_RTGcore_TT] (site CGGTCCCCTTG) (LTG core: CT, RTG core: TT)	0.0341
CGGTCCCCTTGGGTTCTAACCTGTTGCCAAG [CGGTCCCCTTG_LTGcore_CT_RTGcore_CT] (site CGGTCCCCTTG) (LTG core: CT, RTG core: CT)	1.32
CGGTCCCCTTGGGTTCTAACCTGTTGCCACA [CGGTCCCCTTG_LTGcore_CT_RTGcore_TG] (site CGGTCCCCTTG) (LTG core: CT, RTG core: TG)	0.0539
CGGTCCCCTTGGGTTCTAACCTGTTGCCACG [CGGTCCCCTTG_LTGcore_CT_RTGcore_CG] (site CGGTCCCCTTG) (LTG core: CT, RTG core: CG)	0.0795
CGGTCCCCTTGGGTTCTAACCTGTTGCCAGC [CGGTCCCCTTG_LTGcore_CT_RTGcore_GC] (site CGGTCCCCTTG) (LTG core: CT, RTG core: GC)	0.178
CGGTCCCCTTGGGTTCTAACCTGTTGCCATA [CGGTCCCCTTG_LTGcore_CT_RTGcore_TA] (site CGGTCCCCTTG) (LTG core: CT, RTG core: TA)	0.222
CGGTCCCCTTGGGTTCTAACCTGTTGCCATC [CGGTCCCCTTG_LTGcore_CT_RTGcore_GA] (site CGGTCCCCTTG) (LTG core: CT, RTG core: GA)	0.208
CGGTCCCCTTGGGTTCTAACCTGTTGCCATT [CGGTCCCCTTG_LTGcore_CT_RTGcore_AA] (site CGGTCCCCTTG) (LTG core: CT, RTG core: AA)	0.369
GAGCCCAACTGGGTTCTAACCTGTTGCCTGT [GAGCCCACTAG_LTGcore_AC_RTGcore_AC] (site GAGCCCACTAG) (LTG core: AC, RTG core: AC)	0.199
GAGCCCAATTGGGTTCTAACCTGTTGCCTAT [GAGCCCACTAG_LTGcore_AT_RTGcore_AT] (site GAGCCCACTAG) (LTG core: AT, RTG core: AT)	0.154
GAGCCCACCTGGGTTCTAACCTGTTGCCTGG [GAGCCCACTAG_LTGcore_CC_RTGcore_CC] (site GAGCCCACTAG) (LTG core: CC, RTG core: CC)	0.0451
GAGCCCACGTGGGTTCTAACCTGTTGCCTAG [GAGCCCACTAG_LTGcore_CG_RTGcore_CT] (site GAGCCCACTAG) (LTG core: CG, RTG core: CT)	0.2
GAGCCCATCTGGGTTCTAACCTGTTGCCTGA [GAGCCCACTAG_LTGcore_TC_RTGcore_TC] (site GAGCCCACTAG) (LTG core: TC, RTG core: TC)	0.0397
GAGGCCTCATGGGTTCTAACCTGTTGCCATG [GAGGCCTCTTG_LTGcore_CA_RTGcore_CA] (site GAGGCCTCTTG) (LTG core: CA, RTG core: CA)	0.0323
GAGGCCTCCTGGGTTCTAACCTGTTGCCAAG [GAGGCCTCTTG_LTGcore_CC_RTGcore_CT] (site GAGGCCTCTTG) (LTG core: CC, RTG core: CT)	0.273
GAGGCCTCGTGGGTTCTAACCTGTTGCCACG [GAGGCCTCTTG_LTGcore_CG_RTGcore_CG] (site GAGGCCTCTTG) (LTG core: CG, RTG core: CG)	0.169

Sequence	recombinant barcode read abundance (log10)
GAGGCCTCTTGGGTTCTAACCTGTTGCCAGC [GAGGCCTCTTG_LTGcore_CT_RTGcore_GC] (site GAGGCCTCTTG) (LTG core: CT, RTG core: GC)	0.285
GAGGCCTGATGGGTTCTAACCTGTTGCCATC [GAGGCCTCTTG_LTGcore_GA_RTGcore_GA] (site GAGGCCTCTTG) (LTG core: GA, RTG core: GA)	0.231
GAGGCCTGCTGGGTTCTAACCTGTTGCCAGC [GAGGCCTCTTG_LTGcore_GC_RTGcore_GC] (site GAGGCCTCTTG) (LTG core: GC, RTG core: GC)	0.275
GAGGCCTTATGGGTTCTAACCTGTTGCCATA [GAGGCCTCTTG_LTGcore_TA_RTGcore_TA] (site GAGGCCTCTTG) (LTG core: TA, RTG core: TA)	0.172
GAGTCCAAATGGGTTCTAACCTGTTGCGTAG [GAGTCCACTAC_LTGcore_AA_RTGcore_CT] (site GAGTCCACTAC) (LTG core: AA, RTG core: CT)	0.0292
GAGTCCACTTGGGTTCTAACCTGTTGCGTAG [GAGTCCACTAC_LTGcore_CT_RTGcore_CT] (site GAGTCCACTAC) (LTG core: CT, RTG core: CT)	2.39
GAGTCCACTTGGGTTCTAACCTGTTGCGTCC [GAGTCCACTAC_LTGcore_CT_RTGcore_GG] (site GAGTCCACTAC) (LTG core: CT, RTG core: GG)	0.482
GAGTCCACTTGGGTTCTAACCTGTTGCGTGA [GAGTCCACTAC_LTGcore_CT_RTGcore_TC] (site GAGTCCACTAC) (LTG core: CT, RTG core: TC)	0.116
GAGTCCACTTGGGTTCTAACCTGTTGCGTTT [GAGTCCACTAC_LTGcore_CT_RTGcore_AA] (site GAGTCCACTAC) (LTG core: CT, RTG core: AA)	1.07
GAGTCCTATTGGGTTCTAACCTGTTGCCTAG [GAGTCCTCTAG_LTGcore_AT_RTGcore_CT] (site GAGTCCTCTAG) (LTG core: AT, RTG core: CT)	0.0701
GAGTCCTATTGGGTTCTAACCTGTTGCCTAT [GAGTCCTCTAG_LTGcore_AT_RTGcore_AT] (site GAGTCCTCTAG) (LTG core: AT, RTG core: AT)	0.0431
GAGTCCTCGTGGGTTCTAACCTGTTGCCTAG [GAGTCCTCTAG_LTGcore_CG_RTGcore_CT] (site GAGTCCTCTAG) (LTG core: CG, RTG core: CT)	0.274
GAGTCCTCTTGGGTTCTAACCTGTTGCCTAT [GAGTCCTCTAG_LTGcore_CT_RTGcore_AT] (site GAGTCCTCTAG) (LTG core: CT, RTG core: AT)	0.495
GAGTCCTCTTGGGTTCTAACCTGTTGCCTGC [GAGTCCTCTAG_LTGcore_CT_RTGcore_GC] (site GAGTCCTCTAG) (LTG core: CT, RTG core: GC)	0.293
GAGTCCTCTTGGGTTCTAACCTGTTGCCTTT [GAGTCCTCTAG_LTGcore_CT_RTGcore_AA] (site GAGTCCTCTAG) (LTG core: CT, RTG core: AA)	0.398
GCGCGACAATGGGTTCTAACCTGTTGCTTAG [GCGCGACCTAA_LTGcore_AA_RTGcore_CT] (site GCGCGACCTAA) (LTG core: AA, RTG core: CT)	0
GCGCGACACTGGGTTCTAACCTGTTGCTTAG [GCGCGACCTAA_LTGcore_AC_RTGcore_CT] (site GCGCGACCTAA) (LTG core: AC, RTG core: CT)	0.131
